Measured values as given in patent US4578393A, “Dihydroisoquinoline derivatives” (Beecham Group p.l.c., priority 1983, dated 1986).
Where a name gives a salt, the structure may show the parent alone. Read-outs that look alike come from different tables or passages of the source.

What was measured:
[1] = tested on: adjuvant arthritis in the rat; assay: Adjuvant arthritis test in the rat; type: in vivo; settings: read-out: ACTIVE DOSE
Description: The test is as described by Newbould, Brit. J. Pharmacol., 1963, 21, 127-136. Compounds were active at the doses shown below.

[2] = molecular target: T1, 5-Lipoxygenase enzyme (Rattus norvegicus, UniProt P12527); assay: Inhibition of 5-lipoxygenase activity (10,000 g supernatant from RBL-1 cells); type: biochemical; settings: RBL-1 supernatant, 6.3 μm arachidonic acid, 29° C.
T1 construct: 5-Lipoxygenase enzyme was prepared as a 10,000 g supernatant from RBL-1 cells; endogenous in cells; host or cells: RBL-1 cells (10,000 g supernatant)
T1 sequence (P12527 1-673): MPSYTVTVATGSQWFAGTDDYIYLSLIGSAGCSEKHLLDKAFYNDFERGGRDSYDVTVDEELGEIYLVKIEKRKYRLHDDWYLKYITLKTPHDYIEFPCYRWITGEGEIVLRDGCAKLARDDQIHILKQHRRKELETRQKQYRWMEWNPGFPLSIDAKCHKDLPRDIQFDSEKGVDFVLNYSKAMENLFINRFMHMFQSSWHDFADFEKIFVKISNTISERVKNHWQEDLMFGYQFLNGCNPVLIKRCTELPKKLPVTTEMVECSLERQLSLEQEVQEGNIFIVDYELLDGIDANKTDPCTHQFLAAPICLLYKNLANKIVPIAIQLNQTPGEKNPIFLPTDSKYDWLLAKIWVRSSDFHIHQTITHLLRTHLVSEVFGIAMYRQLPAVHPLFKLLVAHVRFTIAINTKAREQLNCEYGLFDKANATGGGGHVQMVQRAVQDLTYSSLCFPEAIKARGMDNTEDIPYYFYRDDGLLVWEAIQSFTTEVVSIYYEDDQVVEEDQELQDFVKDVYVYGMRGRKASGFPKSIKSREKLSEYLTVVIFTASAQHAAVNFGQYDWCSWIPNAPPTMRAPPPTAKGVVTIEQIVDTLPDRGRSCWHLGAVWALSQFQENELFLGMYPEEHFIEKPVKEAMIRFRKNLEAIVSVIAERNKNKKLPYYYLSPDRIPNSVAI
Method: 5-Lipoxygenase enzyme was prepared as a 10,000 g supernatant from RBL-1 cells by the method of Jakschik [Jakschik, B. A., F. F. Sun, L. M. Lee, and M. M. Steinhoff, 1980, Biochem. Biophys. Res. Comm. 95, 103]. The 10,000 g supernatant was diluted with homogenization buffer to the equivalent of 1.5-2.5×10^7 cells. ml^-1 and made 2 mM with respect to CaCl2. Aliquots of 0.5 ml were then dispensed into tubes, and incubated at 29° C. with 5 μl ethanol or compound in ethanol at the desired concentration for 2 min. Then [1-^14 C] arachidonic acid was added in buffer to give a final concentration of 6.3 μm and 0.2 μCi per incubation, and the reaction continued at 29° C. for 2 min. The reaction was terminated by adding 1 ml of acetone and cooling on ice, 0.5 ml of ice-cold saline and 10 μl of 2N formic acid were added, and the mixture was extracted with 2×2 ml of chloroform. The extract was stored under N2 at -20° C. until analysis by chromatography. Activity was measured as the percentage of total radioactivity found in 5-HETE and 5,12-diHETE, and inhibition calculated as the decrease in formation of the sum of these two species in compound-treated incubates relative to control incubates.
(P values as assessed by the students `t` test).

SMILES	minimal effective dose ([1]; po) [mg/kg]	inhibition of 5-lipoxygenase (formation of 5-HETE and 5,12-diHETE) ([2]; concentration of 5 μm) [%]	inhibition of 5-lipoxygenase (formation of 5-HETE and 5,12-diHETE) ([2]; concentration of 50 μm) [%]	minimal effective dose ([1]; ip) [mg/kg]
CN(C)C1=NC(c2ccccc2F)c2ccccc2C1 (stereo not shown) [Example 10, 1-(2-Fluorophenyl)-1,4-dihydro-3-dimethylaminoisoquinoline hydrochloride]	25	–	–	–
CN(C)C1=NC(c2ccccc2Cl)c2ccccc2C1.Cl (stereo not shown) [Example 1, 1-(2-Chlorophenyl)-3-dimethylamino-1,4-dihydroisoquinoline hydrochloride]	25	15	50	–
CN(C)C1=NC(c2ccc(Cl)cc2)c2ccccc2C1.Cl.O (stereo not shown) [Example 2, 1-(4-Chlorophenyl)-3-dimethylamino-1,4-dihydroisoquinoline hydrochloride hydrate]	12.5	–	–	–
Br.CN(C)C1=NC(c2ccc(Cl)cc2)c2ccc(O)cc2C1 (stereo not shown) [Example 32, 1-(4-Chlorophenyl)-3-dimethylamino-6-hydroxy-1,4-dihydroisoquinoline hydrobromide]	–	–	–	25
Br.CN(C)C1=NC(c2ccc(Cl)cc2)c2c(O)cccc2C1.O (stereo not shown) [Example 31, 1-(4-Chlorophenyl)-3-dimethylamino-8-hydroxy-1,4-dihydroisoquinoline hydrobromide hydrate]	–	–	–	20
Br.CN(C)C1=NC(c2ccc(Cl)cc2)c2cc(O)c(O)cc2C1 (stereo not shown) [Example 30, 1-(4-Chlorophenyl)-6,7-dihydroxy-3-dimethylamino-1,4-dihydroisoquinoline hydrobromide]	–	37	92	12.5
